Test results: patent publication US9662372B2 (priority 2013, dated 2017)
Where a SMILES comes first, the peptide text is derived from it. Where no end group is shown, it is not given here. [ ]: non-standard residue; d: D form. βAla = NCCC(=O)O

How the values were obtained:
[1] = system: crude toxin preparation from C. perfringens; type: cell-based
Shiga toxin 2 = Shiga toxin 2 (Escherichia phage 933W, UniProt P09385+P09386)
[2] = system: crude toxin preparation from C. sordellii; type: cell-based
[3] = system: crude toxin preparation from E. coli O157; type: cell-based, Escherichia coli O157
[4] = molecular target: T1, Clostridium difficile Toxin B (Clostridioides difficile, UniProt P18177); assay: Toxin B inactivation, CHO-k1 microwell dye reduction assay; type: cell-based; conditions: for Reduction of measured toxin B: at all tested concentrations, toxin B at high level
T1 construct: purchased List Biological Laboratory (Listlab, Campbell, Calif., USA)
T1 sequence (P18177 whole entry): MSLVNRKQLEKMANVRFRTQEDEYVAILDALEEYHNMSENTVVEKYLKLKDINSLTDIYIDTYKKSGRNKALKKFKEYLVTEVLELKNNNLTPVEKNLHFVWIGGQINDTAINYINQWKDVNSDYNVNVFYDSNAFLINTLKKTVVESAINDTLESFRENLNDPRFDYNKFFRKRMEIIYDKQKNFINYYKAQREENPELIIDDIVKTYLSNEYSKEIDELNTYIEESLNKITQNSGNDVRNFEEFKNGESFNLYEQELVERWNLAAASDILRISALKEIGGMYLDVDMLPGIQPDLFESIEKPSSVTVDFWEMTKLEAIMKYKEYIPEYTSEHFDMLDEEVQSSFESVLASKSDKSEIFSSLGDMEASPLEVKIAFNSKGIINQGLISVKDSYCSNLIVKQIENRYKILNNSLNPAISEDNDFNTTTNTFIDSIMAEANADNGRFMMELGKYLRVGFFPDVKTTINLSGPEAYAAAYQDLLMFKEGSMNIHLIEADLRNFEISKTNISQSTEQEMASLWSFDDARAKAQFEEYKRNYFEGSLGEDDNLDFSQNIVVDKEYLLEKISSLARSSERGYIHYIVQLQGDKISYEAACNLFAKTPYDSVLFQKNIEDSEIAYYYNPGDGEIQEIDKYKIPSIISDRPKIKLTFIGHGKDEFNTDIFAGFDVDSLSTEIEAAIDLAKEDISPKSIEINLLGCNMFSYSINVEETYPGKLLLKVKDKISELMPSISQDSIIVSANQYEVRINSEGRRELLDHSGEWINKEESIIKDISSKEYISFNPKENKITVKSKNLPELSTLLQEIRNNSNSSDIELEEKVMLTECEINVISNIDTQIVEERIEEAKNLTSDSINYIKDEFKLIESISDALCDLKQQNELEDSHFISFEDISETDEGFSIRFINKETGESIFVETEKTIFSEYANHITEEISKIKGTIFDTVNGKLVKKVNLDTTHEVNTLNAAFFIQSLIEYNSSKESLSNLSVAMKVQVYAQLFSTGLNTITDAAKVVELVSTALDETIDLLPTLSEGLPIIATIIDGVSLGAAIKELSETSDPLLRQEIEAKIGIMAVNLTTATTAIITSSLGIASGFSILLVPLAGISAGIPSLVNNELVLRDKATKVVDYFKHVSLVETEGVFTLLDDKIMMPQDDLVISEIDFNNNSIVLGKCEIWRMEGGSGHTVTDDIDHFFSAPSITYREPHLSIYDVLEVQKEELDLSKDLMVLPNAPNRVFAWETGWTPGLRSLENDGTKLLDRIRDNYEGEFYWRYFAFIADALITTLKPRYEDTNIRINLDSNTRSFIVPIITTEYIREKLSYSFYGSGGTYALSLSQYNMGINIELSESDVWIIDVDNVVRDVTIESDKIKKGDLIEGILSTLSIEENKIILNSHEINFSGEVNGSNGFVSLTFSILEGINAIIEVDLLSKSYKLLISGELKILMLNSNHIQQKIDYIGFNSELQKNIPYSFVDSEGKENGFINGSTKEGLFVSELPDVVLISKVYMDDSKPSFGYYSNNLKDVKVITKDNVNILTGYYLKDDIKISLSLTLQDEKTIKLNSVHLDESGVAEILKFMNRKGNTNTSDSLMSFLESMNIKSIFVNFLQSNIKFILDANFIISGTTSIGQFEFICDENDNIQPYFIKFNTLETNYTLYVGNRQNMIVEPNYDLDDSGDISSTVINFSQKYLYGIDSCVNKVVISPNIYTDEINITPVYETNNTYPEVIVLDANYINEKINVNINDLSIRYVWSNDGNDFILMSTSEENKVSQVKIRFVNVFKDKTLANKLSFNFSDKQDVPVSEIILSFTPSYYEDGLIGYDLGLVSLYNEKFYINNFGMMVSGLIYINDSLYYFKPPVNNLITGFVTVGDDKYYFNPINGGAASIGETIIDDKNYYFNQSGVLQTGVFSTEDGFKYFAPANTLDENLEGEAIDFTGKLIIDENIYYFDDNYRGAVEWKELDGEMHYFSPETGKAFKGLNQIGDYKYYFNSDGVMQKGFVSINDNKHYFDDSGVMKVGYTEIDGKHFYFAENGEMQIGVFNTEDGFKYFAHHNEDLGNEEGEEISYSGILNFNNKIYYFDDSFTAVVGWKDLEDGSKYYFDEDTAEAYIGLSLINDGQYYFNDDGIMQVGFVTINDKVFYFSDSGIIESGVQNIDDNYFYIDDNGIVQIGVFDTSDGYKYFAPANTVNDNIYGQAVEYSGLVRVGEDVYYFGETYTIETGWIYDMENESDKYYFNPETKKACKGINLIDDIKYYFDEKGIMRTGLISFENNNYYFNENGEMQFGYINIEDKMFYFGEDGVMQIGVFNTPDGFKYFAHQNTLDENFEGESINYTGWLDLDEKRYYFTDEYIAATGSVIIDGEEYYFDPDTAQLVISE

Shiga toxin 1 = Shiga toxin 1 (UniProt P08026+P69178)
Shiga toxin 1, sequence (P08026 23-315 limits assumed): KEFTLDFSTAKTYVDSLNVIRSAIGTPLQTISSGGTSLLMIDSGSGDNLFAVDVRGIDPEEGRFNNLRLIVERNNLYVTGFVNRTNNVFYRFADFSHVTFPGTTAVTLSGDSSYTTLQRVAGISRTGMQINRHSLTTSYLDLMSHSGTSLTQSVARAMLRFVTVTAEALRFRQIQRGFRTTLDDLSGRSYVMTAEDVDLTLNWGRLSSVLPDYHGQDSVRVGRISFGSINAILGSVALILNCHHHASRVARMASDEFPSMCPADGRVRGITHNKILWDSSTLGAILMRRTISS
Shiga toxin 1, sequence (P69178 21-89 limits assumed): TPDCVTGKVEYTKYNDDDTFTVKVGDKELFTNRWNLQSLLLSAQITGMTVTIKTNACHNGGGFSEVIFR

[5] = system: crude toxin preparation from B. cerus; type: cell-based, Bacillus cereus
[6] = molecular target: Clostridium difficile Toxin B (Clostridium difficile) (UniProt P18177)
C. difficile ATCC 9689 [7] = type: cell-based, Clostridium difficile
C. difficile ATCC 9689 [8] = assay: Bacterial mass in wells of PM panels (OD 750 nm); type: cell-based, Clostridium difficile; conditions: OD difference with vs without C. difficile, 72 h
[9] = at the lowest concentration of 0.03 μM, toxin B 1.2-100 ng/ml
[10] = nitrogen source (PM03/06/07/08)

Shiga toxin 2, sequence (P09385 23-319 limits assumed): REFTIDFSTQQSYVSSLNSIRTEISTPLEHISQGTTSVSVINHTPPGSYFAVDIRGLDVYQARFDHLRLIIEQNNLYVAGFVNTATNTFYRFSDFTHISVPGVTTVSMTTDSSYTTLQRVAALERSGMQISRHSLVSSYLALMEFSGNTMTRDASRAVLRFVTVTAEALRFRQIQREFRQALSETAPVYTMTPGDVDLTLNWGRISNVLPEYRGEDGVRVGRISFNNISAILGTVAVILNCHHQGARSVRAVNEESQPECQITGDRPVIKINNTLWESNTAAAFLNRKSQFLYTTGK
Shiga toxin 2, sequence (P09386 20-89 limits assumed): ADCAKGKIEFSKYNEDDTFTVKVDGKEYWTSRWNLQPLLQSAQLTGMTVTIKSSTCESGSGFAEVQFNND

Compound: protamine
- Toxin inactivation [1]: did not inactivate
- Toxin inactivation (Shiga toxin 2): did not inactivate
- Toxin inactivation [2]: did not inactivate
- Toxin inactivation [3]: did not inactivate
- Reduction of measured toxin B [4]: dramatically reduce
- Toxin B inactivation [4, 9]: completely inactivated
- Optimal concentration against toxin B ([4]; double dilution experiment, FIG. 4): 0.26 µM
- Toxin inactivation (Shiga toxin 1): did not inactivate
- Toxin inactivation [5]: did not inactivate

Compound: poly-D-lysine (peptide)
- concentration at which significant toxin inactivation begins [6]: 1 µg/mL

Compound: polylysine
- Concentration at which significant toxin inactivation begins ([4]; 50 ng/ml C. difficile Toxin B, dose response 0.042-42.5 ug/ml): approximately 1 ug/ml

Compound: poly-L-lysine (peptide)
- concentration at which significant toxin inactivation begins [6]: 1 µg/mL

Compound: poly-L-lysine
- Toxin B inactivation ([4]; 50 ng/ml C. difficile Toxin B): effectively inactivates

Compound: poly-D-lysine
- Toxin B inactivation ([4]; 50 ng/ml C. difficile Toxin B): effectively inactivates

Compound: Gly-Ser
- Toxin (C. difficile ATCC 9689 [7]): <0.122 ng/mL
- C. difficile Mass (C. difficile ATCC 9689 [8]; [10]): 0.0471 OD (750 nm)

Compound: [dA]-Gly-Gly
- Toxin (C. difficile ATCC 9689 [7]): 515 ng/mL
- C. difficile Mass (C. difficile ATCC 9689 [8]; [10]): 0.0538 OD (750 nm)

Compound: Gly-Pro
- Toxin (C. difficile ATCC 9689 [7]): 3798 ng/mL
- C. difficile Mass (C. difficile ATCC 9689 [8]; [10]): 0.0414 OD (750 nm)

Compound: [βAla]-His
- Toxin (C. difficile ATCC 9689 [7]): 8265 ng/mL
- C. difficile Mass (C. difficile ATCC 9689 [8]; [10]): 0.0473 OD (750 nm)

Compound: Leu-Trp
- Effect on toxin production (in words) (C. difficile ATCC 9689 [7]): toxin production inhibitor
- Toxin (C. difficile ATCC 9689 [7]): <0.122 ng/mL
- C. difficile Mass (C. difficile ATCC 9689 [8]; [10]): 0.0380 OD (750 nm)

Compound: CS(=O)(=O)CC[C@H](N)C(=O)O [L-Methionine Sulfone]
- Toxin (C. difficile ATCC 9689 [7]): <0.122 ng/mL
- C. difficile Mass (C. difficile ATCC 9689 [8]; phosphorus/sulfur source panel PM04): 0.0446 OD (750 nm)

Compound: polyarginine
- Reduction of measured toxin B [4]: dramatically reduce
- Toxin B inactivation [4, 9]: completely inactivated

Compound: CC(C)CC(N)C(=O)NC(CC(C)C)C(=O)NC(CC(C)C)C(=O)O (stereo not drawn) [Leu-Leu-Leu] (H-Leu-Leu-Leu-OH; configuration not given here)
- Effect on toxin production (in words) (C. difficile ATCC 9689 [7]): toxin production inhibitor
- Toxin (C. difficile ATCC 9689 [7]): <0.122 ng/mL
- C. difficile Mass (C. difficile ATCC 9689 [8]; [10]): 0.0463 OD (750 nm)
